Our source for the IC50 values is patent publication US6870056B1, “Substitituted polycyclic aryl and heteroaryl pyridones useful for selective inhibition of the coagulation cascade” (Pharmacia Corporation, priority 1999, dated 2005).

Bounds are passed on as bounds.

Assay type in all cases: biochemical
For test [1], the target named is T1, recombinant soluble tissue factor and recombinant human factor VIIa (TF-VIIa) (Homo sapiens, UniProt P08709).
T1 construct: purchased American Diagnostica, Greenwich Conn; host or cells: soluble TF made in house in E. coli
T1 sequence (P08709 213-466 limits assumed): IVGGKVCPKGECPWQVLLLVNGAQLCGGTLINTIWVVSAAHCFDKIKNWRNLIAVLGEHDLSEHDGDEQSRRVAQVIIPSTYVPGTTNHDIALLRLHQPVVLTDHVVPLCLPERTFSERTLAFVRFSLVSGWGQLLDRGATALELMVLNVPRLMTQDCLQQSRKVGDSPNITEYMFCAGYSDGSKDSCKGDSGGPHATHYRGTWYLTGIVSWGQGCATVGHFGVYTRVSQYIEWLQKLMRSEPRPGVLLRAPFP
T1 sequence (P08709 61-212 partner limits assumed): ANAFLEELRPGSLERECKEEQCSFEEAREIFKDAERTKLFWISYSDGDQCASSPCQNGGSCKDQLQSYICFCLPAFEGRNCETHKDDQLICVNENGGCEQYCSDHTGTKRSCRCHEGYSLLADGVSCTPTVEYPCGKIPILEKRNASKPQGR
T1 sequence (P13726 33-251 partner limits assumed): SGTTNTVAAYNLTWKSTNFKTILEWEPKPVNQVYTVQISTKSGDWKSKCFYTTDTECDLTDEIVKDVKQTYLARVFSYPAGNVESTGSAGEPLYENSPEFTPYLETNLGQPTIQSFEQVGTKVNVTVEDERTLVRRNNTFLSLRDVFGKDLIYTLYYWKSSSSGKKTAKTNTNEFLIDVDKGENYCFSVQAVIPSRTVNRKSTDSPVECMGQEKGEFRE
The test can be described thus: TF-VIIa Assay. The settings on record: chromogenic substrate, 60 min, room temperature, pH 8.0. How it is done:
(§1) In this assay 100 nM recombinant soluble tissue factor and 2 nM recombinant human factor VIIa are added to a 96-well assay plate containing 0.4 mM of the substrate, N-Methylsulfonyl-D-phe-gly-arg-p-nitroaniline and either inhibitor or buffer (5 mM CaCl2,50 mM Tris-HCl, pH 8.0, 100 mM NaCl, 0.1% BSA). The reaction, in a final volume of 100 ul is measured immediately at 405 nm to determine background absorbance. The plate is incubated at room temperature for 60 min, at which time the rate of hydrolysis of the substrate is measured by monitoring the reaction at 405 nm for the release of p-nitroaniline. Percent inhibition of TF-VIIa activity is calculated from OD405 nm value from the experimental and control sample.
(§2) Recombinant soluble TF, consisting of amino acids 1-219 of the mature protein sequence was expressed in E. coli and purified using a Mono Q Sepharose FPLC. Recombinant human VIIa was purchased from American Diagnostica, Greenwich Conn. and chromogenic substrate N-Methylsulfonyl-D-phe-gly-arg-p-nitroaniline was prepared by American Peptide Company, Inc., Sunnyvale, Calif. Factor Xa was obtained from Enzyme Research Laboratories, South Bend Ind., thrombin from Calbiochem, La Jolla, Calif., and trypsin and L-BAPNA from Sigma, St Louis Mo. The chromogenic substrates S-2765 and S-2238 were purchased from Chromogenix, Sweden.

Test [2] addresses T2, trypsin, type IX from porcine pancreas (Sus scrofa, UniProt P00761).
T2 construct: purchased Sigma, St Louis Mo. type IX; host or cells: porcine pancreas
The test is described as follows: Trypsin Assay. The settings on record: L-BAPNA substrate, 60 min, room temperature, pH 8.0; read-out: Trpysin II ICSO. The procedure:
5 ug/ml trypsin, type IX from porcine pancreas and 0.375 mM N-α-Benzoyl-L-arginine-p-nitroanilide (L-BAPNA) are added to a 96-well assay plate containing either inhibitor or buffer (50 mM Tris-HCl, pH 8.0, 100 mM NaCl, 0.1% BSA). The reactions, in a final volume of 100 ul are measured immediately at 405 nm to determine background absorbance. The plate is incubated at room temperature for 60 min, at which time the rate of hydrolysis of the substrate is measured by monitoring the reaction at 405 nm for the release of p-nitroaniline. Percent inhibition of trypsin activity is calculated from OD405 nm value from the experimental and control sample.
as §2

The next test addresses T3, human factor Xa (Homo sapiens, UniProt P00742).
T3 construct: leads from XII to XIIa to XIa to IXa and to the conversion of X to Xa; purchased Enzyme Research Laboratories, South Bend Ind
The test is described as follows: Xa Assay. The settings on record: S-2765 substrate, 60 min, room temperature, pH 8.0. How it is done: as §1, with “0.3” for “In this assay 100”, “nM” for “nM recombinant soluble tissue factor and 2 nM recombinant”, “Xa and 0.15 mM N-α-Benzyloxycarbonyl-D-arginyl-L-glycyl-L-arginine-p-nitroaniline-dihydrochloride (S-2765)” for “VIIa”, “containing” for “containing 0.4 mM of the substrate, N-Methylsulfonyl-D-phe-gly-arg-p-nitroaniline and”, “(50” for “(5 mM CaCl2,50”, “Xa” for “TF-VIIa”
as §2

Another test concerns the target human thrombin (Homo sapiens, UniProt P00734). The test is described as follows: Thrombin Assay. The settings on record: chromogenic substrate, 60 min, room temperature, pH 8.0; read-out: Thrombin II IC50. How it is done: Percent inhibition of thrombin activity is calculated from OD405 nm value from the experimental and control sample.
Recombinant human VIIa was purchased from American Diagnostica, Greenwich Conn. and chromogenic substrate N-Methylsulfonyl-D-phe-gly-arg-p-nitroaniline was prepared by American Peptide Company, Inc., Sunnyvale, Calif. Factor Xa was obtained from Enzyme Research Laboratories, South Bend Ind., thrombin from Calbiochem, La Jolla, Calif., and trypsin and L-BAPNA from Sigma, St Louis Mo.

T2 sequence (P00761 9-231): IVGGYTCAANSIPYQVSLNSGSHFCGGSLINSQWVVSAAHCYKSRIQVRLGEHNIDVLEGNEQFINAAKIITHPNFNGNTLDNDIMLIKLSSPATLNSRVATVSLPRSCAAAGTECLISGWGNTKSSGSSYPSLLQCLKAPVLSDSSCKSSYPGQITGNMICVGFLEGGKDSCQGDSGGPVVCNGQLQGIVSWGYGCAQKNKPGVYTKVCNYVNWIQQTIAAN
T3 sequence (P00742 235-488 limits assumed): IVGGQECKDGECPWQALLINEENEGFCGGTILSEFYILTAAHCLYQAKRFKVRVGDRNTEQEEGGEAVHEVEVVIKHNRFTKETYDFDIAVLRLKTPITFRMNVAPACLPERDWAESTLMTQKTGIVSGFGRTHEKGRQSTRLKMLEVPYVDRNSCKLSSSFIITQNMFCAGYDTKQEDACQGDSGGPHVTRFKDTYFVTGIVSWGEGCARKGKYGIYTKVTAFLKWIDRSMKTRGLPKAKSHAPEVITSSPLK
T3 sequence (P00742 41-179 partner limits assumed): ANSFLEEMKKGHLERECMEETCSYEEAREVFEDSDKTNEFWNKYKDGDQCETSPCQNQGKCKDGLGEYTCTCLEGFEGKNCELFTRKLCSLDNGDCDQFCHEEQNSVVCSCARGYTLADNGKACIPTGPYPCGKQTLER

For `NCCCCCNC(=O)Cn1c(=O)c(NS(=O)(=O)Cc2ccccc2)cc2ccccc21` [Example 8], the IC50 (in test [1]; in test [2]; at human factor Xa; at human thrombin) was over 30 µM each time.

As for `Cc1ccc(NS(=O)(=O)Cc2ccccc2)c(=O)n1CC(=O)N[C@@H](CCCNC(=N)N)C(=O)c1nccs1` [Example 18, N-[2(S)-2-[1-Oxo-1-(2-thiazolyl)]-5-[[(amino)iminomethyl]amino]pentyl]-2-[6-methyl-2-oxo-3-[[(phenylmethyl)sulfonyl]amino]-1(2H)-pyrid-1-yl]acetamide], the IC50 in test [1] was 0.8 µM; in test [2], 0.2 µM; on human factor Xa, under 4 µM; on human thrombin, under 0.04 µM.

For `N=C(N)NCCC[C@H](NC(=O)Cn1c(CCc2ccccc2)ccc(NS(=O)(=O)Cc2ccccc2)c1=O)C(=O)c1nccs1` [Example 17, N-[2(S)-2-[1-Oxo-1-(2-thiazolyl)]-5-[[(amino)iminomethyl]amino]pentyl]-2-[6-(2-phenylethyl)-2-oxo-3-[[(phenylmethyl)sulfonyl]amino]-1(2H)-pyrid-1-yl]acetamide], the IC50 in test [1] was 1.1 µM; in test [2], 0.3 µM; on human factor Xa it was 0.1 µM; on human thrombin it was 0.2 µM.

`Nc1ccc(CCNC(=O)Cn2c(=O)c(NS(=O)(=O)Cc3ccccc3)cc3ccccc32)cc1` [Example 6]: the IC50 (in test [1]; in test [2]; against human factor Xa; at human thrombin) was over 30 µM in each case.

`N=C(N)c1ccc(CNC(=O)Cn2c(=O)c(NCCc3ccccc3)cc3ccccc32)cc1` [Example 3]: the IC50 in test [1] is 26.1 µM; in test [2], 0.86 µM; at human factor Xa, over 30 µM; on human thrombin, 11 µM.

Consider `NCc1ccc(CNC(=O)Cn2c(=O)c(NS(=O)(=O)Cc3ccccc3)cc3ccccc32)cc1` [Example 10], for which the IC50 (in test [1]; in test [2]; on human factor Xa; at human thrombin) was over 30 µM each time.

In the case of `N=C(N)c1ccc(CNC(=O)Cn2c(=O)c(NS(=O)(=O)Cc3ccccc3)cc3ccccc32)cc1` [Example 2, N-[[4-[(amino)iminomethyl]phenyl]methyll]-2-[3-benzylsulfonyl-amino-2-oxo-2H-quinolin-1-yl]acetamide], the IC50 in test [1] came out at 46 µM; in test [2], 0.5 µM; against human factor Xa, 7.7 µM; at human thrombin, 5.5 µM.

`O=C(Cn1c(=O)c(NS(=O)(=O)Cc2ccccc2)cc2ccccc21)NCCc1cccnc1` [Example 14]: the IC50 (in test [1]; in test [2]; on human factor Xa; at human thrombin) was over 30 µM throughout.

On to `O=C(Cn1c(=O)c(NS(=O)(=O)Cc2ccccc2)cc2ccccc21)NCCCn1ccnc1` [Example 12], for which the IC50 (in test [1]; in test [2]; on human factor Xa; at human thrombin) was over 30 µM in each case.

On to `N=C(N)c1ccc(CNC(=O)Cn2c(=O)c(NS(=O)(=O)c3ccccc3)cc3ccccc32)cc1` [Example 4], for which the IC50 was over 30 µM in test [1], 0.48 µM in test [2], 23.1 µM at human factor Xa and 22.7 µM on human thrombin.

For the molecule `NCc1cccc(CNC(=O)Cn2c(=O)c(NS(=O)(=O)Cc3ccccc3)cc3ccccc32)c1` [Example 11], the IC50 (in test [1]; in test [2]; at human factor Xa; on human thrombin) was over 30 µM each time.

For `Cc1ccc(NS(=O)(=O)Cc2ccccc2)c(=O)n1CC(=O)NCC1CCN(C(=N)N)CC1` [Example 22], the IC50 in test [1] is over 30 µM; in test [2], 11.1 µM.

Consider `N=C(N)c1ccc(CNC(=O)Cn2c(CCc3ccccc3)ccc(NS(=O)(=O)Cc3ccccc3)c2=O)cc1` [Example 19, N-[[4-[(amino)iminomethyl]phenyl]methyl)-2-[6-(2-phenylethyl)-2-oxo-3-[[(phenylmethyl)sulfonyl]amino]-1(2H)-pyrid-1-yl]acetamide], for which the IC50 in test [1] is 18 µM; in test [2], under 0.1 µM; at human factor Xa, 4.1 µM; at human thrombin, 0.4 µM.

As for `Cc1ccc(NS(=O)(=O)Cc2ccccc2)c(=O)n1CC(=O)NCc1ccc(C(=N)N)cc1` [Example 20, N-[(4-[[amino)iminomethyl]phenyl]methyl]-2-[6-methyl-2-oxo-3-[[(phenylmethyl)sulfonyl]amino]-1(2H)-pyrid-1-yl]acetamide], the IC50 came out at 23 µM in test [1], 0.5 µM in test [2], 5.7 µM against human factor Xa and 0.3 µM at human thrombin.

Consider `Nc1ccc(CNC(=O)Cn2c(=O)c(NS(=O)(=O)Cc3ccccc3)cc3ccccc32)cc1` [Example 16], for which the IC50 (in test [1]; in test [2]; at human factor Xa; on human thrombin) was over 30 µM in each case.

Regarding `CN(C)CCCCCCNC(=O)Cn1c(=O)c(NS(=O)(=O)Cc2ccccc2)cc2ccccc21` [Example 9], the IC50 (in test [1]; in test [2]; against human factor Xa; on human thrombin) was over 30 µM each time.

Turning to `CN1CCC(CCCNC(=O)Cn2c(=O)c(NS(=O)(=O)Cc3ccccc3)cc3ccccc32)CC1` [Example 15], the IC50 (in test [1]; in test [2]; at human factor Xa; at human thrombin) was over 30 µM throughout.

As to `N=C(N)N1CCC(CNC(=O)Cn2c(CCc3ccccc3)ccc(NS(=O)(=O)Cc3ccccc3)c2=O)CC1` [Example 21], the IC50 in test [1] is over 30 µM; in test [2], 0.6 µM; at human factor Xa, 17 µM; at human thrombin it was 0.5 µM.

In the case of `O=C(Cn1c(=O)c(NS(=O)(=O)Cc2ccccc2)cc2ccccc21)NCCc1cnc[nH]1` [Example 13], the IC50 (in test [1]; in test [2]; at human factor Xa; at human thrombin) was over 30 µM throughout.

With `NCCCCNC(=O)Cn1c(=O)c(NS(=O)(=O)Cc2ccccc2)cc2ccccc21` [Example 7], the IC50 (in test [1]; in test [2]; on human factor Xa; at human thrombin) was over 30 µM in each case.

Take `N=C(N)NCCC[C@H](NC(=O)Cn1c(=O)c(NS(=O)(=O)Cc2ccccc2)cc2ccccc21)C(=O)c1nccs1` [Example 1]: the IC50 in test [1] is 4.6 µM; in test [2], 0.21 µM; on human factor Xa it was 0.07 µM; at human thrombin, 0.7 µM.
